Reference: US7419812B2, “Sequences encoding PhzO and methods” (The United States of America as represented by the …, priority 2000, dated 2008)
Several values for one entry are separate records, joined by “and”; a condition that tells them apart may be missing. Identical values can stand only once.

Experiment: Spontaneous conversion (decarboxylation) of synthetic 2-OH-PCA to 2-OH-PHZ in phosphate buffer, RP-HPLC
Assay type: physicochemical
Method: Since phenazine-producing Pseudomonas spp. often produce mixtures of phenazine compounds, a generalized HPLC protocol for detection of these metabolites was developed. The protocol utilized a NOVA-PAK C18 reverse-phase Radial-PAK cartridge (4 μm, 8×100 mm) (Waters Corp., Milford, Mass.), and solvent conditions consisting of a 2-min initial wash with 35% ACN/0.1% TFA in H2O followed by a 25-min linear gradient to 100% ACN/0.1% TFA at a flow rate of 1.0 ml/min. The Waters HPLC system included a 710B WISP, 510 pumps, and a 680 automated gradient controller with a 990 photodiode array detector (Waters Corp.). Phenazine compounds were identified by retention time and ultraviolet spectrum. Standards included compounds purified from well-characterized strains (Mavrodi et al, 1998, supra; Pierson and Thomashow, 1992, supra) and chemically-synthesized compounds (PCA, 2-OH-PCA, and 2-OH-PHZ) obtained from Colour Your Enzyme (Bath, Ontario, Canada). […] 2-OHPHZ, which is formed by spontaneous decarboxylation of 2-OH-PCA (see below), was therefore used as an indicator of 2-hydroxyphenazine synthesis and when necessary, the presence of 2-OH-PCA in samples containing PCA was determined by peak purity and spectral analyses using the Waters 991 photodiode array (Waters Corp.).
Expression and Functional Analysis of PhzO. The phzO gene from P. aureofaciens 30-84 was cloned in pUCP26 under the control of the lac promoter and expressed in E. coli JM109. Cells from induced cultures expressing PhzO produced a unique band of approximately 55 kDa on SDS-PAGE gels, in good agreement with the size predicted by nucleotide sequence analysis. Induced cultures of E. coli expressing PhzO converted PCA (0.3 or 0.5 mg/ml in 5% NaHCO3) to 2-OH-PCA and 2-OH-PHZ within 3 h, whereas no such conversion occurred in control cultures harboring only pUCP26 (FIG. 2). […] To determine whether PhzO is responsible for this reaction in P. aureofaciens 30-84, a tetracycline resistance gene was inserted into phzO and introduced in the genome by homologous recombination. […]

2-OH-PHZ as share of the total phenazine present (0.1 M sodium phosphate buffer pH 4.0, 18 h): 0.2% | 2-OH-PCA initially present converted to 2-OH-PHZ (0.1 M sodium phosphate buffer pH 6.0, 18 h): 33% and 33.3% | 2-OH-PCA initially present converted to 2-OH-PHZ (0.1 M sodium phosphate buffer pH 8.0, 18 h): 62% and 64%
Structure (SMILES): O=C(O)c1c(O)ccc2nc3ccccc3nc12 [2-OH-PCA, 2-hydroxyphenazine-1-carboxylic acid]
